The conditions of data set [1]: cited from earlier work.
Data set [2] is described as follows: Encapsulation efficiency of drug in PLGA extended release particles. The format is physicochemical. The note with it: poly(d,l-lactide-co-glycolide) particles formed by mixing two liquid preproducts (ethyl acetate polymer solution / aqueous phase). On the procedure: A solution of poly(d,l-lactide-co-glycolide) (75/25, RG752 or 50/50, RG 502H or 503H from Böhringer Ingelheim) (40% w/w) in ethyl acetate (syringe 1) (200μl) (first liquid preproduct) is mixed with an aqueous phase (water for injection, Tween 80- or alternatively Pluronic F 68-, Na carboxy methylcellulose) (syringe 2) (2ml) (second liquid preproduct) by connecting the two syringes with a connector or by screwing the two syringes together and by pushing the plungers forward and backward (25 mixing cycles). The extended release particles are thereby formed, which are dispersed in the aqueous phase and which are ready to be injected.
(§1) Like example 1. In addition, a water-insoluble salt of leuprolide, leuprolide oleate, was formed from aqueous leuprolide acetate and sodium oleate solutions. The insoluble salt was separated from the aqueous phase, dried and then added to the poly(d,l-lactide-co-glycolide) solution to form the first liquid preproduct, wherein the drug is dispersed and/or dissolved in the polymer solution. The first liquid preproduct is mixed with and dispersed in the second liquid preproduct.

A short description of data set [3]: Drug release from extended release particles in pH 7.4 phosphate buffer. Type of data set: physicochemical. The note with it: pH 7.4 phosphate buffer (simulates body fluids); compared to the water-soluble salt, leuprolide acetate.
Source text: as §1

Turning to `CCOC(C)=O` [ethylacetate], the solubility in water entry in data set [1] was “approx. 10%”. Regarding `CC(=O)OCC(COC(C)=O)OC(C)=O` [triacetin], in data set [1], the solubility in water result was “approx. 8%”. The compound leuprolide oleate showed an encapsulation efficiencies in data set [2] of over 85%. Further, the “retardation in drug release” value in data set [3] is “even more pronounced retardation in drug release”.

The values above are taken from US7820202B2, “Extended release particle dispersion” (Laboratorios Farmaceuticos Rovi S.A., priority 2000, dated 2010).
